Data from PubChem BioAssay (NCI).
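Where inhibition never reached the appropriate level, the endpoint shown equals the highest concentration tested. Otherwise, values were interpolated linearly from a five-concentration, 48-hour dose response in 96-well plates. The concentration for 50% growth inhibition is given as GI50. At the TGI there is no net growth.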

Tests used:
Experiment in all cases: growth of human tumour cells (NCI), 48 h; in the data active = GI50 below about 0.43 µM; inactive = the rest
HCT-116 colon = test system: HCT-116 colon
CCRF-CEM leukemia = test system: CCRF-CEM leukemia
OVCAR-5 ovarian = test system: OVCAR-5 ovarian
UACC-257 melanoma = test system: UACC-257 melanoma
HOP-62 NSCLC = test system: HOP-62 NSCLC
MDA-MB-435 = test system: MDA-MB-435
SNB-75 CNS = test system: SNB-75 CNS
RPMI-8226 leukemia = test system: RPMI-8226 leukemia
SK-MEL-28 melanoma = test system: SK-MEL-28 melanoma
U251 CNS = test system: U251 CNS
786-0 renal = test system: 786-0 renal
SF-295 CNS = test system: SF-295 CNS
HS 578T breast = test system: HS 578T breast
OVCAR-8 ovarian = test system: OVCAR-8 ovarian
SNB-19 CNS = test system: SNB-19 CNS
PC-3 prostate = test system: PC-3 prostate
ACHN renal = test system: ACHN renal
RXF 393 renal = test system: RXF 393 renal
SK-OV-3 ovarian = test system: SK-OV-3 ovarian
SK-MEL-2 melanoma = test system: SK-MEL-2 melanoma
HT29 colon = test system: HT29 colon
HCT-15 colon = test system: HCT-15 colon
UACC-62 melanoma = test system: UACC-62 melanoma
COLO 205 colon = test system: COLO 205 colon
MCF7 breast = test system: MCF7 breast
TK-10 renal = test system: TK-10 renal
A498 renal = test system: A498 renal
MDA-MB-231 breast = test system: MDA-MB-231 breast
NCI-H23 lung = test system: NCI-H23 lung
HOP-92 NSCLC = test system: HOP-92 NSCLC
A549 NSCLC = test system: A549 NSCLC
SK-MEL-5 melanoma = test system: SK-MEL-5 melanoma
SW-620 colon = test system: SW-620 colon
SF-268 CNS = test system: SF-268 CNS
KM12 colon = test system: KM12 colon
HCC-2998 colon = test system: HCC-2998 colon
SN12C renal = test system: SN12C renal
UO-31 renal = test system: UO-31 renal
LOX IMVI melanoma = test system: LOX IMVI melanoma
DU-145 prostate = test system: DU-145 prostate
HL-60(TB) leukemia = test system: HL-60(TB) leukemia
NCI-H522 lung = test system: NCI-H522 lung
M14 melanoma = test system: M14 melanoma
NCI-H226 lung = test system: NCI-H226 lung
T-47D breast = test system: T-47D breast
CAKI-1 renal = test system: CAKI-1 renal
MALME-3M melanoma = test system: MALME-3M melanoma
OVCAR-3 ovarian = test system: OVCAR-3 ovarian
MOLT-4 leukemia = test system: MOLT-4 leukemia
OVCAR-4 ovarian = test system: OVCAR-4 ovarian
BT-549 breast = test system: BT-549 breast
NCI/ADR-RES ovarian = test system: NCI/ADR-RES ovarian
IGROV1 ovarian = test system: IGROV1 ovarian
EKVX NSCLC = test system: EKVX NSCLC
K-562 leukemia = test system: K-562 leukemia
NCI-H460 lung = test system: NCI-H460 lung
SF-539 CNS = test system: SF-539 CNS

COc1ccc(Nc2ncc(-c3ccccc3)o2)cc1OC
> 19 µM: TGI (HL-60(TB) leukemia)
> 25 µM: TGI (HCT-116 colon) | TGI (CCRF-CEM leukemia) | TGI (OVCAR-5 ovarian) | TGI (UACC-257 melanoma) | TGI (HOP-62 NSCLC) | TGI (MDA-MB-435) | TGI (SNB-75 CNS) | TGI (RPMI-8226 leukemia) | TGI (SK-MEL-28 melanoma) | TGI (U251 CNS) | TGI (786-0 renal) | TGI (SF-295 CNS) | TGI (HS 578T breast) | TGI (OVCAR-8 ovarian) | TGI (SNB-19 CNS) | TGI (PC-3 prostate) | TGI (ACHN renal) | TGI (SK-OV-3 ovarian) | TGI (SK-MEL-2 melanoma) | TGI (HT29 colon) | TGI (HCT-15 colon) | TGI (UACC-62 melanoma) | TGI (COLO 205 colon) | TGI (MCF7 breast) | TGI (TK-10 renal) | TGI (A498 renal) | TGI (MDA-MB-231 breast) | TGI (NCI-H23 lung) | TGI (HOP-92 NSCLC) | TGI (A549 NSCLC) | TGI (SK-MEL-5 melanoma) | TGI (SW-620 colon) | TGI (SF-268 CNS) | TGI (KM12 colon) | TGI (HCC-2998 colon) | TGI (SN12C renal) | TGI (UO-31 renal) | TGI (LOX IMVI melanoma) | TGI (DU-145 prostate) | TGI (NCI-H522 lung) | TGI (M14 melanoma) | TGI (NCI-H226 lung) | TGI (T-47D breast) | TGI (CAKI-1 renal) | TGI (MALME-3M melanoma) | TGI (OVCAR-3 ovarian) | TGI (MOLT-4 leukemia) | TGI (OVCAR-4 ovarian) | TGI (BT-549 breast) | TGI (NCI/ADR-RES ovarian) | TGI (IGROV1 ovarian) | TGI (EKVX NSCLC) | TGI (K-562 leukemia) | TGI (NCI-H460 lung) | TGI (SF-539 CNS)
> 19.5 µM: TGI (RXF 393 renal)
inactive: GI50 (HCT-116 colon) 9.37 µM | GI50 (CCRF-CEM leukemia) 13.9 µM | GI50 (OVCAR-5 ovarian) > 25 µM | GI50 (UACC-257 melanoma) > 25 µM | GI50 (HOP-62 NSCLC) > 25 µM | GI50 (MDA-MB-435) > 19.5 µM | GI50 (SNB-75 CNS) 5.09 µM | GI50 (RPMI-8226 leukemia) > 24 µM | GI50 (SK-MEL-28 melanoma) > 25 µM | GI50 (U251 CNS) 11.2 µM | GI50 (786-0 renal) 11.6 µM | GI50 (SF-295 CNS) > 24.2 µM | GI50 (HS 578T breast) 8.43 µM | GI50 (OVCAR-8 ovarian) 16.2 µM | GI50 (SNB-19 CNS) > 25 µM | GI50 (PC-3 prostate) 17.6 µM | GI50 (ACHN renal) 8.59 µM | GI50 (RXF 393 renal) 6.03 µM | GI50 (SK-OV-3 ovarian) 12.7 µM | GI50 (SK-MEL-2 melanoma) 18.4 µM | GI50 (HT29 colon) 16.3 µM | GI50 (HCT-15 colon) 10.6 µM | GI50 (UACC-62 melanoma) > 22.3 µM | GI50 (COLO 205 colon) 18.4 µM | GI50 (MCF7 breast) > 25 µM | GI50 (TK-10 renal) 6.07 µM | GI50 (A498 renal) 7.77 µM | GI50 (MDA-MB-231 breast) > 25 µM | GI50 (NCI-H23 lung) > 25 µM | GI50 (HOP-92 NSCLC) 6.04 µM | GI50 (A549 NSCLC) 15.2 µM | GI50 (SK-MEL-5 melanoma) > 25 µM | GI50 (SW-620 colon) 14.9 µM | GI50 (SF-268 CNS) > 17.2 µM | GI50 (KM12 colon) 4.35 µM | GI50 (HCC-2998 colon) > 25 µM | GI50 (SN12C renal) > 21.6 µM | GI50 (UO-31 renal) 9.29 µM | GI50 (LOX IMVI melanoma) 11.6 µM | GI50 (DU-145 prostate) 10.7 µM | GI50 (HL-60(TB) leukemia) 10.9 µM | GI50 (NCI-H522 lung) 9.33 µM | GI50 (M14 melanoma) > 22.9 µM | GI50 (NCI-H226 lung) > 20.6 µM | GI50 (T-47D breast) 24.7 µM | GI50 (CAKI-1 renal) 7.02 µM | GI50 (MALME-3M melanoma) > 25 µM | GI50 (OVCAR-3 ovarian) > 15.6 µM | GI50 (MOLT-4 leukemia) 13.6 µM | GI50 (OVCAR-4 ovarian) > 22.2 µM | GI50 (BT-549 breast) 18.6 µM | GI50 (NCI/ADR-RES ovarian) > 22 µM | GI50 (IGROV1 ovarian) > 17.1 µM | GI50 (EKVX NSCLC) > 25 µM | GI50 (K-562 leukemia) 8.3 µM | GI50 (NCI-H460 lung) 13.4 µM | GI50 (SF-539 CNS) 5.34 µM
